After the bases stand the sugars from the 5' end (letter, count) and the backbone: PS all phosphorothioate, else s phosphorothioate and o phosphodiester by linkage. Methylation of C is not given here. e = 2'-O-(2-methoxyethyl) (MOE); l = locked nucleic acid (LNA); d = 2'-deoxy (DNA)
Assays:
SNHG14 = conditions: ASO
DGAT2 = conditions: ASO
[1] = Mouse Primary Neuronal Cell, 0.005 µM

Sequence	target mRNA inhibition (SNHG14; Human Neuronal Cell, 7.5 µM)	target mRNA inhibition (SNHG14; Human Neuronal Cell, 0.2 µM)	target mRNA inhibition (SNHG14; Human Neuronal Cell, 1 µM)	further results
AAAATCTCAACTACCATTT (sugars lddddlddddddlllldll, PS)	45%			
AAAATCTCAACTACCATTT (sugars ldlldlddddddddlldll, PS)	30%			
AAAATCTCAACTACCATTTT (sugars l1 d12 l4 d1 l2, PS)	42%			
AAAATCTCAACTACCATTTT (sugars l3 d11 l2 d1 l3, PS)	12%			
AAAATCTCAACTACCATTTT (sugars ldllddldddddddllddll, PS)	5%			
AAAATCTCAACTACCATTTT (sugars lllldldddddddlddllll, PS)	14%			
AAAATTATTTATACACCATC (sugars lldddllddddddllldlll, PS)	63%			
AAACTACCCTGCACAA (sugars l3 d10 l3, PS)		22%	39%	
AAACTTTCCCAACATTAT (sugars l2 d12 l4, PS)		35%	49%	
AAATCTCAACTACCATTTTT (sugars ldddldlddddddldlddll, PS)	41%			
AAATCTCAACTACCATTTTT (sugars lldlldldddddddldddll, PS)	53%			
AAATTATTTATACACCATCA (sugars ldddlldddddddldldlll, PS)	67%			
AAATTATTTATACACCATCA (sugars ldlllddddddddlddllll, PS)	68%			
AAATTATTTATACACCATCA (sugars ldllllddddddddldldll, PS)	70%			
AAATTTCTCAACCTAAATTT (sugars l2 d14 l4, PS)		-9%	2%	
AACATGTAATTTCCAT (sugars l2 d10 l4, PS)		31%	27%	
AACTCTCACTGTAACT (sugars l4 d10 l2, PS)		41%	53%	
AAGAAACACCCTTCCA (sugars l2 d10 l4, PS)		40%	54%	
AAGATCATTCTCAACA (sugars l4 d10 l2, PS)		60%	67%	
AAGATCATTCTCAACAAT (sugars l2 d2 l2 d6 l6, PS)	47%			
AAGATCATTCTCAACAAT (sugars lllldlddddddldllll, PS)	-6%			

Sequence	target mRNA inhibition (SNHG14; Human Neuronal Cell, 7.5 µM)	target mRNA inhibition (SNHG14; Human Neuronal Cell, 0.2 µM)	target mRNA inhibition (SNHG14; Human Neuronal Cell, 1 µM)	further results
AATTATTTATACACCATCAT (sugars lllddllddddddldlldll, PS)	56%			
AATTATTTATACACCATCAT (sugars llllddldddddddldddll, PS)	61%			
AATTTTTTTCTTACTATCTT (sugars ldllddddddddddllddll, PS)	44%			
AATTTTTTTCTTACTATCTT (sugars lldllldddddddddldlll, PS)	57%			
ACACATTATATTTAAACTA (sugars l3 d13 l3, PS)		8%	-2%	
ACATCTCATACTTGCTT (sugars l2 d11 l4, PS)		-4%	7%	target mRNA inhibition (SNHG14; Human Neuronal Cell, 5 µM): 9%; target mRNA inhibition (SNHG14; [1]): 96%
ACATGTCCCTTTATATT (sugars l2 d13 l2, PS)		-12%	8%	target mRNA inhibition (SNHG14; Human Neuronal Cell, 5 µM): 21%; target mRNA inhibition (SNHG14; [1]): 85.2%
ACATGTCCCTTTATATT (sugars l4 d11 l2, PS)		-15%	-4%	target mRNA inhibition (SNHG14; Human Neuronal Cell, 5 µM): 9%; target mRNA inhibition (SNHG14; [1]): 83.7%
ACCAATTATACTTACAA (sugars l3 d11 l3, PS)		21%	52%	
ACCACCTAAGACCTCA (sugars l2 d11 l3, PS)		45%	44%	
ACCACTGATTTCCTTA (sugars l2 d10 l4, PS)		50%	63%	
ACCCATTTCTAACATT (sugars l4 d10 l2, PS)		29%	40%	
ACCTACATCTCATACT (sugars l2 d12 l2, PS)		-16%	8%	target mRNA inhibition (SNHG14; Human Neuronal Cell, 5 µM): 0%; target mRNA inhibition (SNHG14; [1]): 85.7%
ACCTACATCTCATACTT (sugars l2 d11 l4, PS)				target mRNA inhibition (SNHG14; [1]): 94.2%
ACCTGTAATACTTCTT (sugars l4 d10 l2, PS)		48%	46%	
ACTCCTAAGAATTACA (sugars l4 d10 l2, PS)		34%	34%	
ACTCTCACTGTAACTT (sugars l3 d10 l3, PS)		36%	44%	
ACTCTGCAATACACCAA (sugars l1 d1 l2 d10 l3, PS)	63%			
ACTCTGCAATACACCAA (sugars ldddldddddddldlll, PS)	66%			
ACTGATTTCCTTAAAC (sugars l4 d10 l2, PS)		24%	52%	
ACTGTTTATACCCTTTC (sugars l1 d2 l1 d9 l4, PS)	45%			

Sequence	target mRNA inhibition (SNHG14; Human Neuronal Cell, 7.5 µM)	target mRNA inhibition (SNHG14; Human Neuronal Cell, 0.2 µM)	target mRNA inhibition (SNHG14; Human Neuronal Cell, 1 µM)	further results
ACTGTTTATACCCTTTC (sugars l2 d10 l1 d2 l2, PS)	60%			
ACTGTTTATACCCTTTC (sugars ldddlddddddddldll, PS)	55%			
ACTGTTTATACCCTTTCC (sugars l1 d11 l1 d3 l2, PS)	56%			
ACTTTACTGCCATAATC (sugars l3 d11 l3, PS)		40%	33%	
AGATCATTCTCAACAATTA (sugars ldlddldddddddllldll, PS)	50%			
AGCAACATTATTAACCAC (sugars l2 d1 l1 d9 l5, PS)	61%			
AGCAACATTATTAACCAC (sugars ldllldddddddlldlll, PS)	26%			
AGCAACATTATTAACCACC (sugars l2 d1 l2 d12 l2, PS)	63%			
AGCAACATTATTAACCACC (sugars lddddlddddddlldddll, PS)	45%			
AGCACATATACCATCA (sugars l4 d10 l2, PS)		51%	56%	
AGCATTCAACCCTAATC (sugars l4 d11 l2, PS)		52%	50%	
AGCTCCATATTTAAAT (sugars l4 d10 l2, PS)		10%	-9%	
AGTTCTACTATACTTTC (sugars l3 d11 l3, PS)	57%			
AGTTCTACTATACTTTCC (sugars l1 d4 l1 d10 l2, PS)	49%			
AGTTCTACTATACTTTCC (sugars l1 d15 l2, PS)	11%			
ATAAGCTTACCTCATA (sugars l2 d10 l4, PS)		62%	68%	
ATAATCCCATACATCTA (sugars l3 d11 l3, PS)		60%	69%	
ATACACAGCACATATT (sugars l2 d10 l4, PS)		29%	43%	
TTTTAAATAACCCACAGACA (sugars e5 d10 e5, PS)				target mRNA inhibition (DGAT2; HepG2, 0.12 µM): 10%; target mRNA inhibition (DGAT2; HepG2, 2.5 µM): 92%; target mRNA inhibition (DGAT2; HepG2, 10 µM): 60%; target mRNA inhibition (DGAT2; HepG2, 20 µM): 81%
